Data on four compounds can be found in patent US12075784B2, “Mixtures containing secondary calcium and magnesium phosphonate and their use as fungicide or fertilizer” ([…] (haftungsbeschränkt), priority 2016, dated 2024).

For one assay, the system named is Rhizopus stolonifer. The assay can be described thus: B.4 Protective action against Rhizopus stolonifer on rye bread (Pumpernickel). To be noted: Pumpernickel slices; mixtures 1:50 diluted with water, sorbic acid 0.1% solution; after one week of incubation. The method, then: B.4 Protective Action Against Rhizopus stolonifer on Rye Bread (“Pumpernickel”)
Sterile slices of Pumpernickel were each sprayed with water (control), a 0.1% sorbic acid solution (a standard preservative) or the mixture of example 1 or of example 8 (1:50 diluted with water). For inoculation with the fungus, small disks of blotting paper were soaked with a spore suspension of Rhizopus stolonifer and placed onto the center of Pumpernickel slices. After one week of incubation, the degree of fungus formation was examined.

Assay [1] deals with Plasmopara viticola. The assay can be described thus: B.5.1 Protective and curative treatment against Plasmopara viticola in grapevines (half-leaf). Format: in vivo. The following applies: example 12 diluted 1:100, examples 13/14 1:200, 0.05% Silwet L-77, ca. 2 μl/cm2, 6 days after first inoculation. As to the method:
(§1) Potted grapevines were inoculated with Plasmopara viticola both before foliar treatment with the active agent and after washing the active agent coating off the leaves in order to test the effect of the residual depot of actives. To ensure a good comparability of the results and avoid or at least strongly minimize falsification of the effects, e.g. due to the use of leaves of different physiological age or of different expositions, a half-leaf treatment was carried out: In each case only one half of a leaf was treated, while the other half remained untreated and served as a control and reference for determining efficacy; the two halves being separated by the middle leaf vein. […]
6 days after the first inoculation the plants were placed for 12 h into a humid chamber and then the extent of infection was determined visually and the efficacy W was calculated from the infected leave surface according to the above Abbot's formula.
The expected efficacies for active compound combinations (i.e. secondary magnesium and calcium phosphonate) were determined using Colby's formula (Colby, S. R., “Calculating synergistic and antagonistic responses of herbicide combinations”, Weeds, 15, pp. 20-22, 1967) and compared to the observed efficacies. […]

In assay [2] the test system is Plasmopara viticola. The experiment in a line: B.5.3 Protective treatment against Plasmopara viticola in grapevines. Format: in vivo. To be noted: without first inoculation, washed after 24 h, example 12 diluted 1:100, examples 13/14 1:200, 5 days after inoculation. As to the method: as §1, with “vein. For this purpose a precision sprayer was used for applying the active compounds on the one leaf half, while the half which was to stay untreated was covered with a blotting paper during spraying.” for “vein.”
The experiment was carried out in analogy to B.5.1, however without the first inoculation. 5 days after the inoculation the plants were placed for 12 h into a humid chamber and then the extent of infection was determined visually and the efficacy W was calculated from the infected leave surface according to Abbot's formula. The expected efficacies for active compound combinations (i.e. secondary magnesium and calcium phosphonate) were determined using Colby's formula.

In another assay the test system is Erysiphe graminis. The experiment in a line: B.6 Protective treatment against Erysiphe graminis in wheat. Type of assay: in vivo. The following applies: wheat cultivar Kanzler sprayed to runoff, example 12 diluted 1:100, examples 13/14 1:200, inoculated after 24 h, 18 days after treatment. The method, then:
For a treatment according to the invention, the reaction mixture obtained in example 12 was diluted with water in 1:100 v/v ratio, then 0.05% Silwet® L-77 was added. For comparison, the reaction mixtures obtained in examples 13 and 14, respectively, were diluted with water in 1:200 v/v ratio, then 0.05% Silwet® L-77 was added.
B.6 Protective Treatment Against Erysiphe graminis in Wheat
In a greenhouse, wheat plants of the cultivar Kanzler with 2-3 fully developed leaves were sprayed to runoff-point with either a suspension of the product of example 13 containing secondary magnesium phosphonate, or of the product of example 14 containing secondary calcium phosphonate, or of the product of example 12 containing secondary calcium and magnesium phosphonate; in each case diluted and supplemented with a wetting agent as defined in example B.5.1. After 24 h the plants were inoculated with conidia of Erysiphe graminis. 18 days after the treatment with the active compounds the extent of infection (formation of conidia) was determined visually and the efficacy W was calculated from the infected leave surface according to Abbot's formula. The expected efficacies for active compound combinations (i.e. secondary magnesium and calcium phosphonate) were determined using Colby's formula.

In assay [3] the test system is Plasmopara viticola. The assay can be described thus: B.5.2 Curative treatment against Plasmopara viticola in grapevines. Format: in vivo. To be noted: without second inoculation, half-leaf, example 12 diluted 1:100, examples 13/14 1:200, 5 days after inoculation. The method, then:
as §1, with “vein. For this purpose a precision sprayer was used for applying the active compounds on the one leaf half, while the half which was to stay untreated was covered with a blotting paper during spraying.” for “vein.”
The experiment was carried out in analogy to B.5.1, however without the second inoculation. 5 days after the inoculation the plants were placed for 12 h into a humid chamber and then the extent of infection was determined visually and the efficacy W was calculated from the infected leave surface according to Abbot's formula. The expected efficacies for active compound combinations (i.e. secondary magnesium and calcium phosphonate) were determined using Colby's formula.

For assay [4], the system named is Sphaerotheca fuliginea and Erysiphe cichoracearum. The experiment in a line: B.7 Protective treatment against Sphaerotheca fuliginea and Erysiphe cichoracearum in cucumber. Format: in vivo. The following applies: Cucumis sativus half-leaf treatment, example 12 diluted 1:100, examples 13/14 1:200, inoculated after 24 h, 18 days after treatment. The method, then: as §1, with “vein. For this purpose a precision sprayer was used for applying the active compounds on the one leaf half, while the half which was to stay untreated was covered with a blotting paper during spraying.” for “vein.”
In a greenhouse, leaves of Cucumis sativus plants var. […] 18 days after the treatment with the active compounds the extent of infection (formation of conidia) was determined visually and the efficacy W was calculated from the infected leave surface according to Abbot's formula. The expected efficacies for active compound combinations (i.e. secondary magnesium and calcium phosphonate) were determined using Colby's formula.

The next assay relates to powdery mildew. The following applies: dogwood plants; untreated control 30%; from U.S. Pat. Nos. 5,736,164 and 5,800,837; cited from earlier work.

With `C/C=C/C=C/C(=O)O` [Sorbic acid, sorbic acid], the Infected surface area in the assay on Rhizopus stolonifer was determined as 40%.
Regarding “secondary magnesium phosphonate [Example 13]”, the Observed efficacy in the assay on Plasmopara viticola [1] came to 16.5%; in the assay on Plasmopara viticola [2] it was 44.5%; with Erysiphe graminis it was 36.7%; in the assay on Plasmopara viticola [3], 47.3%; in assay [4] it was 43.3%.
In the case of potassium phosphonate, the “leaves infected with powdery mildew” value with powdery mildew is reported as 100%.
For the compound “secondary calcium phosphonate [Example 14]”, the Observed efficacy is recorded as 24.6% with Plasmopara viticola [1]; 35.1% with Plasmopara viticola [2]; 11.7% with Erysiphe graminis; 18.3% in the assay with Plasmopara viticola [3]; 20.0% in assay [4].
